Measured values from publication PMC9364801, “APOBEC3 selects V179I in HIV-1 reverse transcriptase to provide selective advantage for non-nucleoside reverse transcriptase inhibitor-resistant mutants” (Frontiers in virology, 2022).

Legend:
Settings in all cases: TZM-bl cells, MOI 0.02, 48 h; virus infectivity read-out; NNRTI pocket
[1] = molecular target: T1, HIV-1 reverse transcriptase (RT), HIV-1NL4-3 (Human immunodeficiency virus type 1 (NEW YORK-5 ISOLATE), UniProt P12497); experiment: single-cycle pseudovirus infection, luciferase; type: cell-based; design: gene gag-pol; mature RT p66/p51 heterodimer cut from Gag-Pol polyprotein; […]; tested in TZM-bl cells
[2] = molecular target: T1, HIV-1 reverse transcriptase (RT), HIV-1NL4-3; experiment: single-cycle pseudovirus infection, luciferase; type: cell-based; design: gene gag-pol; mature RT p66/p51 heterodimer cut from Gag-Pol polyprotein; […]; tested in TZM-bl cells; remark: listed apart in the source
[3] = molecular target: T1, HIV-1 reverse transcriptase (RT), HIV-1NL4-3; design: gene gag-pol
[4] = molecular target: T1, HIV-1 reverse transcriptase (RT), HIV-1NL4-3; experiment: single-cycle pseudovirus infection, luciferase; type: cell-based; design: gene gag-pol; mature RT p66/p51 heterodimer cut from Gag-Pol polyprotein; […]; tested in TZM-bl cells; remark: listed apart in the source

## Cc1cc(C)c(Nc2ccnc(Nc3ccc(C#N)cc3)n2)c(C)c1 [DAP, dapivirine]
[1]
  DAP EC50: 0.26 ± 0.13 nM

## Cn1c(Cn2ccc(C(F)(F)F)c(Oc3cc(Cl)cc(C#N)c3)c2=O)n[nH]c1=O [DOR, doravirine]
[2]
  DOR EC50: 1.4 ± 0.28 nM

## O=C1Nc2ccc(Cl)cc2[C@@](C#CC2CC2)(C(F)(F)F)O1 [EFV, efavirenz]
[3]
  EFV EC50: 0.65 ± 0.30 nM

## Cc1cc(C#N)cc(C)c1Oc1nc(Nc2ccc(C#N)cc2)nc(N)c1Br [ETR, etravirine]
[4]
  ETR EC50: 0.83 ± 0.23 nM
